Results: PMC6211260 (Journal of Enzyme Inhibition and Medicinal Chemistry, 2018)
Where “and” joins values, the source holds several entries; their conditions need not be identical. Equal values may be shown once.

What was measured:
[1] = Plasma stability; type: in vitro ADME; conditions: 37 °C, 10 µM
Experimental: About 10 µM of compound 2l was mixed with human plasma and rat plasma and the mixture was shaked at 37 °C for 30 min and 120 min. After each time interval, acetonitrile was added and the mixture was centrifugated (14000 rpm, 4 °C). The supernatant was injected into the LC-MS to detect the remaining amount of compound 2l.

[2] = system: NCI-60 cell line panel; test: NCI-60 single-dose (10 µM) antiproliferative screening, mean over panel; type: cell-based; conditions: single-dose 10 µM
Experimental: Screening against the cancer cell lines was carried out at the National Cancer Institute (NCI, Bethesda, Maryland, USA) applying the standard protocol of the NCI[22].
The final target compounds were submitted to the National Cancer Institute (NCI), Maryland, USA[23]. Thirty-one compounds were selected to be tested over 60 cell lines at single dose 10 µM.

[3] = In vivo pharmacokinetic assay; conditions: SD rats, 10 mg/kg, mean, N = 3
Experimental: Serum samples were collected each 30 min. The blood concentration of the test compounds was determined by LC-MS/MS (Agilent 1290 infinity II series equipped with on-line degasser, binary pump, thermostatted well-plate autosampler and column compartment, Waters Atlantis® HSS T3 (2.1 × 100 mm, 1.9 µm) column, and mobile phase linear gradient from 95% A (0.1% formic acid in water) /5% B (0.1% formic acid in acetonitrile) to 5% A/95% B, 6500+ QTRAP LC-MS/MS/MS system, Turbo Spray Ion Drive as ion source, and Carbamazepine as internal standard. Pharmacokinetic parameters were obtained by non-compartmental analysis of the plasma concentration–time profiles using KineticaTM 4.4.1 (Thermo Fisher Scientific, Inc., Woburn, MA, USA).

[4] = molecular target: T1, ABL1 (T315I) (Homo sapiens, UniProt P00519, T315I); test: In vitro kinase screening (Kinase HotSpot); type: biochemical; conditions: single dose of 10 µM
T1 construct: purchased Reaction Biology Corp
Source text: (§1) To investigate the biological target of compound, Reaction Biology Corp. Kinase HotSpotSM service was used adopting standard assay protocol.

[5] = molecular target: T2, JNK1 (Homo sapiens, UniProt P45983); test: In vitro kinase screening (Kinase HotSpot); type: biochemical
T2 construct: purchased Reaction Biology Corp
Source text: as §1

[6] = molecular target: T3, IKKb/IKBKB (Homo sapiens, UniProt O14920); test: In vitro kinase screening (Kinase HotSpot); type: biochemical; conditions: single dose of 10 µM
T3 construct: purchased Reaction Biology Corp
T3 sequence (O14920 1-756): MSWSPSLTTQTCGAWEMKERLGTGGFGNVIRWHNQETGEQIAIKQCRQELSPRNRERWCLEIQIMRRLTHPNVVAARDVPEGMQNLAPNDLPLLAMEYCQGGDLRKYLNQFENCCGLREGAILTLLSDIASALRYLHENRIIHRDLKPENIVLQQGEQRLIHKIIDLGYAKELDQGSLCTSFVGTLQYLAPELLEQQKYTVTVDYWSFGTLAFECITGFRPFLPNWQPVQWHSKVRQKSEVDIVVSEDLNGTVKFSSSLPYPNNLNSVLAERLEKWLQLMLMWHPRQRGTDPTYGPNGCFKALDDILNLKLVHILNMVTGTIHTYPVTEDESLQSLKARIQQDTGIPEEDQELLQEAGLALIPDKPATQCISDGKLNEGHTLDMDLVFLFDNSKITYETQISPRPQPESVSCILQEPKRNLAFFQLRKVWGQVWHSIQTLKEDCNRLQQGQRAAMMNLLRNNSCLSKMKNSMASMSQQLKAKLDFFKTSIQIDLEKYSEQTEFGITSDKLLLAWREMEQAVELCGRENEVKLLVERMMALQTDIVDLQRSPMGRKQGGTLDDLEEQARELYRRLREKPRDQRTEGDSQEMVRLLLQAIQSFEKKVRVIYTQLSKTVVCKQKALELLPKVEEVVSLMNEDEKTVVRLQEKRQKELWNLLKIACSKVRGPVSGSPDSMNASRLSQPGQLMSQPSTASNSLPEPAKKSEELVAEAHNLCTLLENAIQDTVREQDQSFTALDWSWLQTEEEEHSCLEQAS
Source text: as §1

[7] = molecular target: T4, BRAF (Homo sapiens, UniProt P15056); test: In vitro kinase screening (Kinase HotSpot); type: biochemical
T4 construct: purchased Reaction Biology Corp
Source text: as §1

[8] = molecular target: T5, RAF1 (Homo sapiens, UniProt P04049); test: In vitro kinase screening (Kinase HotSpot); type: biochemical
T5 construct: purchased Reaction Biology Corp
Source text: as §1

[9] = molecular target: T6, ROS/ROS1 (Homo sapiens, UniProt P08922); test: In vitro kinase screening (Kinase HotSpot); type: biochemical; conditions: single dose of 10 µM
T6 construct: purchased Reaction Biology Corp
Source text: as §1

[10] = molecular target: T7, JNK2 (Homo sapiens, UniProt P45984); test: In vitro kinase screening (Kinase HotSpot); type: biochemical
T7 construct: purchased Reaction Biology Corp
Source text: as §1

[11] = molecular target: T8, MEK1 (Homo sapiens, UniProt Q02750); test: In vitro kinase screening (Kinase HotSpot); type: biochemical; conditions: single dose of 10 µM
T8 construct: purchased Reaction Biology Corp
Source text: as §1

[12] = molecular target: T9, KDR/VEGFR2 (Homo sapiens, UniProt P35968); test: In vitro kinase screening (Kinase HotSpot); type: biochemical; conditions: single dose of 10 µM
T9 construct: purchased Reaction Biology Corp
Source text: as §1

[13] = molecular target: T10, EGFR (Homo sapiens, UniProt P00533); test: In vitro kinase screening (Kinase HotSpot); type: biochemical; conditions: single dose of 10 µM
T10 construct: purchased Reaction Biology Corp
Source text: as §1

[14] = molecular target: T11, ERK1 (Homo sapiens, UniProt P27361); test: In vitro kinase screening (Kinase HotSpot); type: biochemical; conditions: single dose of 10 µM
T11 construct: purchased Reaction Biology Corp
Source text: as §1

[15] = molecular target: T12, JNK3 (Homo sapiens, UniProt P53779); test: In vitro kinase screening (Kinase HotSpot); type: biochemical; conditions: single dose of 10 µM
T12 construct: purchased Reaction Biology Corp
Source text: as §1

[16] = molecular target: T13, MKK6 (Homo sapiens, UniProt P52564); test: In vitro kinase screening (Kinase HotSpot); type: biochemical; conditions: single dose of 10 µM
T13 construct: purchased Reaction Biology Corp
Source text: as §1

[17] = molecular target: T14, P38a/MAPK14 (Homo sapiens, UniProt Q16539); test: In vitro kinase screening (Kinase HotSpot); type: biochemical
T14 construct: purchased Reaction Biology Corp
Source text: as §1

[18] = molecular target: T15, GSK3b (Homo sapiens, UniProt P49841); test: In vitro kinase screening (Kinase HotSpot); type: biochemical; conditions: single dose of 10 µM, 10 µM
T15 construct: purchased Reaction Biology Corp
Source text: as §1

[19] = molecular target: T16, MEK2 (Homo sapiens, UniProt P36507); test: In vitro kinase screening (Kinase HotSpot); type: biochemical; conditions: single dose of 10 µM
T16 construct: purchased Reaction Biology Corp
Source text: as §1

T2 sequence (P45983 whole entry): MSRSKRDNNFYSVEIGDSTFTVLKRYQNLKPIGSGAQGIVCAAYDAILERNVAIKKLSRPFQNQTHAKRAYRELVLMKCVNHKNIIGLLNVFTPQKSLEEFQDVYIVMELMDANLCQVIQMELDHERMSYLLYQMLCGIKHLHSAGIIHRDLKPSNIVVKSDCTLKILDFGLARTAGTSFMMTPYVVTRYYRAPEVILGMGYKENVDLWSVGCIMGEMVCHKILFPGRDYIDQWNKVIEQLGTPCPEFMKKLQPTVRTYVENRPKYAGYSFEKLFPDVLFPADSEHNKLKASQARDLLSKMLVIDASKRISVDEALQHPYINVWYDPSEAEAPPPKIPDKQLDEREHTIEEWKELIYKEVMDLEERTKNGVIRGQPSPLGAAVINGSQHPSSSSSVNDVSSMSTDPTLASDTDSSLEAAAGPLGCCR
T7 sequence (P45984 whole entry): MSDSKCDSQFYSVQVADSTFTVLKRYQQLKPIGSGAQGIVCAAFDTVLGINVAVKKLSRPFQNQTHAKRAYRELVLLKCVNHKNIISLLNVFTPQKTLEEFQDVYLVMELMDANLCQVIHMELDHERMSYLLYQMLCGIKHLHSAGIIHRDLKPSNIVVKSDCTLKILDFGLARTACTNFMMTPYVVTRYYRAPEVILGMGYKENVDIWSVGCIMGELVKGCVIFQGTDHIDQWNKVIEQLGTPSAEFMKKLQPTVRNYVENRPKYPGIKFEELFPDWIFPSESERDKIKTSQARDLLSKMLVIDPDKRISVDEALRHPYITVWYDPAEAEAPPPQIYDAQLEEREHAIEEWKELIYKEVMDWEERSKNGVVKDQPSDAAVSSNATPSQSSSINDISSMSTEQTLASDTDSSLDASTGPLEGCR
T14 sequence (Q16539 whole entry): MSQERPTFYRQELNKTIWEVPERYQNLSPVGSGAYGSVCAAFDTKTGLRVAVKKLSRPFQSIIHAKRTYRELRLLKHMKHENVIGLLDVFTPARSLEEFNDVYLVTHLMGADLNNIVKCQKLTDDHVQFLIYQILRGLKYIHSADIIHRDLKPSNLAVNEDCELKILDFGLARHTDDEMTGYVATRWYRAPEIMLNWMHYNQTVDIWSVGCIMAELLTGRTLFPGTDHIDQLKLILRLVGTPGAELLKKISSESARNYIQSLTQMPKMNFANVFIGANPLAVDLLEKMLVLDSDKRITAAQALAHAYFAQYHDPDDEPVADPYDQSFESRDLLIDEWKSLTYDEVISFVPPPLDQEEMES
T4 sequence (P15056 whole entry): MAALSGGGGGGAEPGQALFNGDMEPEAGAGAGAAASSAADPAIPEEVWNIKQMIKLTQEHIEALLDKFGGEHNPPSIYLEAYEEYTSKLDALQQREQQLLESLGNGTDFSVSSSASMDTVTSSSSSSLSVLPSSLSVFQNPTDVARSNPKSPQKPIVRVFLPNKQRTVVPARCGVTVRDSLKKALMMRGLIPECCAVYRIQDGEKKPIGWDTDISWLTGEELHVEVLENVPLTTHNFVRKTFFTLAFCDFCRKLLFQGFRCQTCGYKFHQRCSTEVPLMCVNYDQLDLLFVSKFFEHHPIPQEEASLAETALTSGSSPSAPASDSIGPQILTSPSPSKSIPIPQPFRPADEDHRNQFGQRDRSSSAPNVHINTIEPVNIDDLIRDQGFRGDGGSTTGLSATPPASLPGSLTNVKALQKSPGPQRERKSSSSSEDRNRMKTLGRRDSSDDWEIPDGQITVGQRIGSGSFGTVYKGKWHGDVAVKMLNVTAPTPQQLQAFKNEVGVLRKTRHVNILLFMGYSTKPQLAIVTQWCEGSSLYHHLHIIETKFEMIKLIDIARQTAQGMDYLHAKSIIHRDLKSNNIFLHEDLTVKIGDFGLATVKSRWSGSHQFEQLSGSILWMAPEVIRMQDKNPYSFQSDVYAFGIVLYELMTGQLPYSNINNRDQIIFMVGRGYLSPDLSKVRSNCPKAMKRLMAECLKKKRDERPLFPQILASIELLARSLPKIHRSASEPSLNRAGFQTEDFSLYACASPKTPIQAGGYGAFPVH
T12 sequence (P53779 whole entry): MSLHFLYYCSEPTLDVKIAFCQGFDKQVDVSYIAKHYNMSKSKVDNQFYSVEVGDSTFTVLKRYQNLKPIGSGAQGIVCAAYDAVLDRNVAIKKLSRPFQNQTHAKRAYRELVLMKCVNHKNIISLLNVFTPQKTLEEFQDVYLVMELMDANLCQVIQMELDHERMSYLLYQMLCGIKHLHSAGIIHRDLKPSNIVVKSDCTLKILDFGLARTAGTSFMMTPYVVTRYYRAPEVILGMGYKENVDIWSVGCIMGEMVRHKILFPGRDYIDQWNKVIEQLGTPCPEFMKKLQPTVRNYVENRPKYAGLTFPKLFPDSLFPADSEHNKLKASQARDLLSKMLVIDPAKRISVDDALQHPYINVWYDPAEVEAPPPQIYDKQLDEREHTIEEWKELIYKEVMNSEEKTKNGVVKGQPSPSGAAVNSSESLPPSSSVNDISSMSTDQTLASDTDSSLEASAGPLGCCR
T10 sequence (P00533 25-1210): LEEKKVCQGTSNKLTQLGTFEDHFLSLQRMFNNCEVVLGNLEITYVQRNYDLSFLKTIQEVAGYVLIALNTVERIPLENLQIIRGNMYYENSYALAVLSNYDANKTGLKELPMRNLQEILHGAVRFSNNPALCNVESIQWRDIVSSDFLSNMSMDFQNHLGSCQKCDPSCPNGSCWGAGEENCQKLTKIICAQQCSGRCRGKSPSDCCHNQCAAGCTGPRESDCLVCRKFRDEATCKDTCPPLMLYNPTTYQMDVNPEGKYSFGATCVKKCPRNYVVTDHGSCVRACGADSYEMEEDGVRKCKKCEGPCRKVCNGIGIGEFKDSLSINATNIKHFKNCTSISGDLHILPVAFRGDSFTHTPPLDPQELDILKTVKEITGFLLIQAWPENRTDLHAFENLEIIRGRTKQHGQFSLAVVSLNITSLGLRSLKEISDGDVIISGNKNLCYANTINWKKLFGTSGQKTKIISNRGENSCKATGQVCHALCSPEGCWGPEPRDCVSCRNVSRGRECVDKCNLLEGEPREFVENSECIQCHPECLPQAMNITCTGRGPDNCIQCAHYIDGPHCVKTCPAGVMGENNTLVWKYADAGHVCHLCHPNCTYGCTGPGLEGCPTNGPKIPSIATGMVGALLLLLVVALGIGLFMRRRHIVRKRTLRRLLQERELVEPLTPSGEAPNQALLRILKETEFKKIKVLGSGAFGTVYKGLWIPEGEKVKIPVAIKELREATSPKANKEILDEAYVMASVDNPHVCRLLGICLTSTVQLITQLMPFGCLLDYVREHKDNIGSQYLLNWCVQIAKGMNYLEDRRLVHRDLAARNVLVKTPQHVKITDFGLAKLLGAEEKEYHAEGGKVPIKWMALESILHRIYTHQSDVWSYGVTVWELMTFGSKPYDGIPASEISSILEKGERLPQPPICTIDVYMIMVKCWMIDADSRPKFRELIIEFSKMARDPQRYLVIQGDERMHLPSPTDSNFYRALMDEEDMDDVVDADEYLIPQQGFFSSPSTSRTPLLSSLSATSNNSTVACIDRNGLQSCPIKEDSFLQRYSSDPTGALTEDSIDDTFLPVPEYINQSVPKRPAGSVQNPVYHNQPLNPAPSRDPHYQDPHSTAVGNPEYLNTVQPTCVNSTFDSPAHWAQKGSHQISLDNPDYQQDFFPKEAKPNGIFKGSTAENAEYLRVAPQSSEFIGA
T11 sequence (P27361 whole entry): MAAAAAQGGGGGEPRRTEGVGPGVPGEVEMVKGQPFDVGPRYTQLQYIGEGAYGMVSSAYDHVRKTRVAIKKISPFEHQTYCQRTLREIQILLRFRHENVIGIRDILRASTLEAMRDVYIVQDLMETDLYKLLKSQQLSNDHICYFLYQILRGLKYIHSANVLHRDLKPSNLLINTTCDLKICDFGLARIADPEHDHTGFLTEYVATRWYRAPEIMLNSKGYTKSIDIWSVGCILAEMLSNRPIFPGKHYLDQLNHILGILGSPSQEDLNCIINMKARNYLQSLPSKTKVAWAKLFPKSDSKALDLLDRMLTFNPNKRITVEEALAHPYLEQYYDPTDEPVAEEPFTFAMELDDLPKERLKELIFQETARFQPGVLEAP
T16 sequence (P36507 whole entry): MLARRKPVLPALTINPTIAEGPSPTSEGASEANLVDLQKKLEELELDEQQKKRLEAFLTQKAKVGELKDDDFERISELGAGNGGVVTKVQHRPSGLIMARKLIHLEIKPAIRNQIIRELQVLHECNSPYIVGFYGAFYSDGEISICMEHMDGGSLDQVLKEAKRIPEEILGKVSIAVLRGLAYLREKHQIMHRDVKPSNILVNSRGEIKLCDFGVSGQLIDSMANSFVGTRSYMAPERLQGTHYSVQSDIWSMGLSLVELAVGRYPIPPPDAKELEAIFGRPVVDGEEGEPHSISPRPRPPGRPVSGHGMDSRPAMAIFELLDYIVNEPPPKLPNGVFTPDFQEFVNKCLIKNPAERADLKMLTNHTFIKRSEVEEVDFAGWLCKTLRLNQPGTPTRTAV
T13 sequence (P52564 whole entry): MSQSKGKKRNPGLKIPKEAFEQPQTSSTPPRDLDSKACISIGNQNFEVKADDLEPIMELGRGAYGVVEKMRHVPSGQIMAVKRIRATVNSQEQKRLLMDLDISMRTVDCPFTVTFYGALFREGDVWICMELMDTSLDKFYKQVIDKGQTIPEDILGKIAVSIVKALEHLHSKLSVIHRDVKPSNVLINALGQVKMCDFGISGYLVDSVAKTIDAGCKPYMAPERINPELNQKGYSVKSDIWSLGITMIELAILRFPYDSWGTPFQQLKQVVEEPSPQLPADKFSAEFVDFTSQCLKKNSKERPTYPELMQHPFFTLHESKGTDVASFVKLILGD

Question: With O=S(=O)(NCCCNc1cc(-c2cn(-c3ccccc3)nc2-c2cccc(O)c2)ccn1)c1ccc(Cl)cc1 [Compound 2l, 4-Chloro-N-(3-((4-(3-(3-hydroxyphenyl)-1-phenyl-1H-pyrazol-4-yl)pyridin-2-yl)amino)propyl) benzenesulfonamide] as the compound, how does the “Plasma stability, remaining unchanged” value ([1]; Human plasma, 30 min) read?
Answer: Its value is 100%.

Question: And the “Plasma stability, remaining unchanged” value ([1]; Human plasma, 30 min, listed as 2 l)?
Answer: The value was 100%.

Question: What about the “Plasma stability, remaining unchanged” value ([1]; Human plasma, 120 min) of the same compound?
Answer: The value was 95.3%.

Question: What about the “Plasma stability, remaining unchanged” value ([1]; Human plasma, 120 min, listed as 2 l) of the same compound?
Answer: The value was 95.3%.

Question: What about the “Plasma stability, remaining unchanged” value ([1]; Rat plasma, 30 min) of the same compound?
Answer: The value was 100%.

Question: What about the “Plasma stability, remaining unchanged” value ([1]; Rat plasma, 120 min) of the same compound?
Answer: The value was 100%.

Question: And the Mean % inhibition ([2]; 60-cancer cell line screening)?
Answer: The Mean % inhibition was 97.80%.

Question: And the “number of cell lines with more than 100% inhibition” value ([2]; NCI-60 panel)?
Answer: The value was 24.

Question: And the AUCinf ([3]; IV)?
Answer: The AUCinf was 1478.2 ng·h/mL.

Question: What about the AUClast ([3]; IV) of the same compound?
Answer: The AUClast was 1471.6 ng·h/mL.

Question: What about the CL ([3]; IV) of the same compound?
Answer: The CL was 113 mL/min/kg.

Question: What about the t1/2 ([3]; IV) of the same compound?
Answer: Its t1/2 is 5.8 h.

Question: What about the AUCinf ([3]; PO) of the same compound?
Answer: Its AUCinf is 142.1 ng·h/mL.

Question: And the AUClast ([3]; PO)?
Answer: Its AUClast is 136.0 ng·h/mL.

Question: And the Cmax ([3]; PO)?
Answer: Its Cmax is 36.6 ng/mL.

Question: And the “F (oral bioavailability)” value ([3]; PO)?
Answer: Its value is 9.2%.

Question: And the Tmax ([3]; PO)?
Answer: Its Tmax is 0.5 h.

Question: What about the t1/2 ([3]; PO) of the same compound?
Answer: The t1/2 was 6.1 h.

Question: What about the Inhibition % [4] of the same compound?
Answer: Its Inhibition % is “–10.98 ± 0.40%”.

Question: What about the IC50 [5] of the same compound?
Answer: The IC50 was 350 ± 40 nM.

Question: What about the Inhibition % ([5]; single dose of 10 µM, 10 µM) of the same compound?
Answer: Its Inhibition % is 99.02% and 99.05 ± 0.03%.

Question: What about the Inhibition % [6] of the same compound?
Answer: The Inhibition % was −2.94 ± 0.17%.

Question: And the IC50 [7]?
Answer: Its IC50 is 4870 ± 70 nM.

Question: And the Inhibition % ([7]; single dose of 10 µM)?
Answer: Its Inhibition % is 72.56 ± 0.27%.

Question: And the IC50 [8]?
Answer: Its IC50 is 3520 ± 10 nM.

Question: And the Inhibition % [9]?
Answer: Its Inhibition % is 24.03 ± 0.51%.

Question: What about the IC50 [10] of the same compound?
Answer: The IC50 was 360 ± 70 nM.

Question: What about the Inhibition % ([10]; single dose of 10 µM, 10 µM) of the same compound?
Answer: Its Inhibition % is 98.47% and 98.49 ± 0.02%.

Question: What about the Inhibition % [11] of the same compound?
Answer: The Inhibition % was 0.56 ± 1.08%.

Question: And the Inhibition % [12]?
Answer: Its Inhibition % is 10.05 ± 0.10%.

Question: And the Inhibition % [13]?
Answer: Its Inhibition % is 11.74 ± 4.78%.

Question: And the Inhibition % [14]?
Answer: The Inhibition % was 13.07 ± 0.93%.

Question: What about the Inhibition % [15] of the same compound?
Answer: The Inhibition % was 89.50 ± 0.03%.

Question: And the Inhibition % [16]?
Answer: The Inhibition % was 16.65 ± 0.11%.

Question: And the IC50 ([17]; MAPK14)?
Answer: The IC50 was 1130 ± 90 nM.

Question: What about the Inhibition % ([17]; single dose of 10 µM, P38a/MAPK14) of the same compound?
Answer: The Inhibition % was 86.54 ± 0.61%.

Question: What about the Inhibition % [18] of the same compound?
Answer: The Inhibition % was 75.45 ± 0.28%.

Question: And the Inhibition % [19]?
Answer: The Inhibition % was 11.73 ± 1.60%.
